Experimental data reported in PMC7733455, “A novel multistage antiplasmodial inhibitor targeting Plasmodium falciparum histone deacetylase 1” (Cell Discovery, 2020).
Where two headings read alike, the source gives them in different places. Non-standard residues stand in square brackets, D forms with d. Residues, ends and D or L forms follow the SMILES beside them. ξ: configuration not given here. Aoe(9ξ) = N[C@@H](CCCCCC(=O)C1CO1)C(=O)O; dPip = O=C(O)[C@H]1CCCCN1

Key:
P. falciparum 3D7 = assay: 3-day SYBR Green I growth inhibition assay (GIA), strain 3D7; format: cell-based, Plasmodium falciparum; conditions: read-out: Antiplasmodial activity EC50, 3D7
Protocol: (§1) A 3-day SYBR Green I inhibition EC50 assay was performed as described previously. Briefly, highly synchronized ring-stage parasites by 5% sorbitol (1% parasitemia and 2% hematocrit) were incubated in a 96-well plate with compounds in a total volume of 200 μL. […] The parasites were cultured for 72 h before SYBR Green I staining as described above. The EC50 was calculated by GraphPad Prism. DHA was used as a positive control, and the final concentration of DMSO was 1%.

P. falciparum Dd2 = assay: 3-day SYBR Green I GIA, multidrug-resistant strain Dd2; format: cell-based, Plasmodium falciparum; conditions: 3-day SYBR Green I GIA, multidrug-resistant strain Dd2, read-out: Antiplasmodial activity EC50, Dd2
Protocol: as §1

293T cells = assay: In vitro cytotoxicity analysis (CellTiter-Glo), 293T; conditions: for EC50: read-out: Cytotoxicity EC50, 293T, 72 h, CellTiter-Glo
Protocol: (§2) In all, 1% DMSO was used as a negative control. The inhibition of each drug was normalized to that of the DMSO control. EC50 was calculated by GraphPad Prism. Three independent assays with two technical replicates each time were conducted in this experiment.

HepG2 cells = assay: In vitro cytotoxicity analysis (CellTiter-Glo), HepG2; conditions: for EC50: read-out: Cytotoxicity EC50, HepG2, 72 h, CellTiter-Glo
Protocol: as §2

[1] = In vitro cytotoxicity analysis (CellTiter-Glo), 293T; conditions: human
Protocol: as §2

[2] = In vitro cytotoxicity analysis (CellTiter-Glo), HepG2; conditions: human
Protocol: as §2

[3] = 3-day SYBR Green I GIA, drug-sensitive strain 3D7
[4] = Plasmodium falciparum, 3D7, 72 h, 3-day SYBR Green I GIA, drug-sensitive strain 3D7
[5] = 293T cells, Cytotoxicity EC50, 293T, 72 h, CellTiter-Glo

SMILES | EC50 (P. falciparum 3D7; [3]) [nM] | EC50 (P. falciparum Dd2) [nM] | EC50 (P. falciparum 3D7; [4]) [nM] | EC50 (P. falciparum Dd2; Plasmodium falciparum, 72 h) [nM] | Selectivity index for 293T (EC50 293T/EC50 3D7) (293T cells) | EC50 (293T cells) [nM] | Selectivity index for HepG2 (EC50 HepG2/EC50 3D7) (HepG2 cells) | EC50 (HepG2 cells) [nM] | EC50 at 72 h [1, 5] [nM] | EC50 at 72 h ([2]; HepG2 cells) [nM] | EC50 (P. falciparum 3D7; Plasmodium falciparum, 3D7, 72 h) [nM] | EC50 at 72 h [1] [nM] | EC50 at 72 h [2] [nM]
Cl.O=C(NO)c1cnc(N2CCC3(CCN(Cc4ccc(-c5ccccc5)cc4)C3)C2)nc1 (centres unmarked) [JX21116] | 21.7 ± 0.2 | 33.9 ± 0.3 |  |  | 111 | 2410 ± 118 | 137 | 2960 ± 152 |  |  |  |  | 
Cl.O=C(NO)c1cnc(N2CCC3(CCN(Cc4cccs4)C3)C2)nc1 (centres unmarked) [JX21110] | 49.7 ± 1.1 | 35.4 ± 1.3 |  |  | 91 | 4540 ± 323 | 34 | 1690 ± 163 |  |  |  |  | 
Cl.O=C(NO)c1cnc(N2CCC3(CCN(Cc4ccc5ccccc5c4)C3)C2)nc1 (centres unmarked) [JX21101] |  |  | 3.5 ± 0.2 | 2.18 ± 0.02 | 331 |  | 186 |  | 1160 ± 193 | 651 ± 63 |  |  | 
Cl.O=C(NO)c1cnc(N2CCC3(CCN(Cc4ccc5c(c4)CCO5)C3)C2)nc1 (centres unmarked) [JX21109] |  |  | 9.8 ± 0.3 | 7 ± 0.3 | 260 |  | 133 |  | 2560 ± 113 | 1310 ± 73 |  |  | 
O=C(CCCCC[C@@H]1NC(=O)[C@H]2CCCCN2C(=O)[C@H](Cc2ccccc2)NC(=O)[C@H](Cc2ccccc2)NC1=O)C1CO1 (some centres unmarked) [Trapoxin A, reference compound] (cyclo(FF[dPip][Aoe(9ξ)])) |  |  |  |  | 9 |  | 77 |  |  |  | 82 | 724 | 6320
Cl.O=C(NO)c1cnc(N2CCC3(CCN(Cc4ccc5ncccc5c4)C3)C2)nc1 (centres unmarked) [JX21137] | 7 ± 0.4 | 9.6 ± 0.5 |  |  | 254 | 1770 ± 28 | 179 | 1250 ± 190 |  |  |  |  | 
Cl.O=C(NO)c1cnc(N2CCC3(CCN(CC4CCCCC4)C3)C2)nc1 (centres unmarked) [JX21112] | 40.4 ± 4.1 | 28.3 ± 3.8 |  |  | 15 | 607 ± 42 | 62 | 2490 ± 520 |  |  |  |  | 
Cl.O=C(NO)c1cnc(N2CCC3(CCN(Cc4ccsc4)C3)C2)nc1 (centres unmarked) [JX21120] | 18.6 ± 3.9 | 23.2 ± 1.2 |  |  | 211 | 3930 ± 374 | 114 | 2120 ± 165 |  |  |  |  | 
Cl.O=C(NO)c1cnc(N2CCC3(CCN(Cc4ccc5ccccc5n4)C3)C2)nc1 (centres unmarked) [JX21143] | 7.9 ± 1 | 3.1 ± 0.3 |  |  | 368 | 2910 ± 655 | 49 | 388 ± 58 |  |  |  |  | 
Cl.O=C(NO)c1cnc(N2CCC3(CCNC3)C2)nc1 (centres unmarked) [JX21131] | 40.4 ± 9.2 | 20.7 ± 2.4 |  |  | > 248 | > 10000 | > 248 | > 10000 |  |  |  |  | 
Cl.O=C(NO)c1cnc(N2CCC3(CCN(Cc4cccnc4)C3)C2)nc1 (centres unmarked) [JX21119] | 53.3 ± 0.5 | 39 ± 4 |  |  | 131 | 6998 ± 57 | 120 | 6420 ± 540 |  |  |  |  | 
COc1ccc(-c2nc(N3CCOCC3)c3sc(CN(C)c4ncc(C(=O)NO)cn4)cc3n2)cn1 [Fimepinostat, reference compound] |  |  | 63 |  | 1 |  | 1 |  | 69 | 70 |  |  | 
O=C(NO)c1cnc(N2CCN(S(=O)(=O)c3ccc4ccccc4c3)CC2)nc1 [R306465, reference compound] | 23 |  |  |  | 287 | 6600 | 38 | 877 |  |  |  |  | 
Cl.O=C(NO)c1cnc(N2CCC3(CCN(Cc4ccco4)C3)C2)nc1 (centres unmarked) [JX21111] | 45.5 ± 3.3 | 34 ± 2.5 |  |  | 50 | 2260 ± 286 | 24 | 1100 ± 18 |  |  |  |  | 
Cl.Cn1cc(CNC2CCC(Nc3ncc(C(=O)NO)cn3)CC2)c2ccccc21 (centres unmarked) [JX21022] | 151 ± 2.7 | 125 ± 4.5 |  |  | > 66 | > 10000 | > 66 | > 10000 |  |  |  |  | 
Cl.O=C(NO)c1cnc(N2CCC3(CCN(CC4CCCC4)C3)C2)nc1 (centres unmarked) [JX21121] | 92.5 ± 11.3 | 61.6 ± 4.8 |  |  | > 108 | > 10000 | > 108 | > 10000 |  |  |  |  | 

The next lines start with results.

EC50 (P. falciparum 3D7; [3]) [nM] | EC50 (P. falciparum Dd2) [nM] | EC50 (P. falciparum 3D7; [4]) [nM] | EC50 (P. falciparum Dd2; Plasmodium falciparum, 72 h) [nM] | SMILES | Selectivity index for 293T (EC50 293T/EC50 3D7) (293T cells) | EC50 (293T cells) [nM] | Selectivity index for HepG2 (EC50 HepG2/EC50 3D7) (HepG2 cells) | EC50 (HepG2 cells) [nM] | EC50 at 72 h [1, 5] [nM] | EC50 at 72 h ([2]; HepG2 cells) [nM] | EC50 (P. falciparum 3D7; Plasmodium falciparum, 3D7, 72 h) [nM] | EC50 at 72 h [1] [nM] | EC50 at 72 h [2] [nM]
32.9 ± 0.9 | 61 ± 0.4 |  |  | Cl.Cn1cc(CNC2CCN(c3ncc(C(=O)NO)cn3)CC2)c2ccccc21 [JX21004] | 16 | 519 ± 112 | 9 | 294 ± 57 |  |  |  |  | 
10.9 ± 0.8 | 15.3 ± 0.4 |  |  | Cl.Cn1cc(CN2CCN(c3ncc(C(=O)NO)cn3)CC2)c2ccccc21 [JX21003] | 4 | 47 ± 21 | 4 | 44 ± 7 |  |  |  |  | 
4.2 ± 0.7 | 2.4 ± 0.2 |  |  | Cl.Cn1cc(CN2CCC3(CCN(c4ncc(C(=O)NO)cn4)C3)C2)c2ccc(Cl)cc21 (centres unmarked) [JX21102] |  | 1670 ± 110 | 123 | 514 ± 22 |  |  |  |  | 
 |  | 5.61 ± 0.04 | 6.4 ± 1.3 | Cl.O=C(NO)c1cnc(N2CCC3(CCN(Cc4cc5ccccc5s4)C3)C2)nc1 (centres unmarked) [JX21118] | 292 |  | 298 |  | 1640 ± 122 | 1670 ± 230 |  |  | 
72.9 ± 10 | 74.4 ± 27.4 |  |  | Cl.O=C(NO)c1cnc(N2CCC3(CCN(Cc4cnc5ccccn45)C3)C2)nc1 (centres unmarked) [JX21122] | > 137 | > 10000 | > 137 | > 10000 |  |  |  |  | 
6 ± 0.4 | 4.9 ± 0.7 |  |  | Cl.O=C(NO)c1cnc(N2CCC3(CCN(Cc4cccc5ccccc45)C3)C2)nc1 (centres unmarked) [JX21125] | 207 | 1240 ± 185 | 136 | 815 ± 48 |  |  |  |  | 
67.5 ± 5.3 | 112 ± 13.1 |  |  | Cl.O=C(NO)c1cnc(N2CCC3(CCN(Cc4coc5ccccc45)C3)C2)nc1 (centres unmarked) [JX21113] | 45 | 3020 ± 67 | > 148 | > 10000 |  |  |  |  | 
79.2 ± 2.4 | 44 ± 10 |  |  | Cl.Cn1cc(CN2CCC3(CC2)CN(c2ncc(C(=O)NO)cn2)C3)c2ccccc21 [JX21013] | > 126 | > 10000 | > 126 | > 10000 |  |  |  |  | 
13.1 ± 0.6 | 23.6 ± 0.4 |  |  | Cl.Cn1cc(CN2CCC(CNc3ncc(C(=O)NO)cn3)CC2)c2ccccc21 [JX21008] | 19 | 253 ± 89 | 52 | 688 ± 10 |  |  |  |  | 
2 ± 0.9 | 3.6 ± 0.08 |  |  | Cl.Cn1cc(CN2CCC3(CCN(c4ncc(C(=O)NO)cn4)C3)C2)c2ccc(F)cc21 (centres unmarked) [JX21106] | 198 | 402 ± 96 | 88 | 178 ± 4 |  |  |  |  | 
23.4 ± 2.4 | 31.1 ± 4.6 |  |  | Cl.Cn1cc(CN2CCC3(CC2)CCN(c2ncc(C(=O)NO)cn2)CC3)c2ccccc21 [JX21010] | 94 | 2210 ± 226 | 39 | 904 ± 18 |  |  |  |  | 
45.9 ± 11.8 | 76.2 ± 9.9 |  |  | Cl.O=C(NO)c1cnc(N2CCC3(CCN(Cc4ccnc5ccccc45)C3)C2)nc1 (centres unmarked) [JX21114] | 41 | 1859 ± 12 | 86 | 3930 ± 537 |  |  |  |  | 
73.6 ± 3.5 | 108 ± 5.6 |  |  | CN(Cc1cn(C)c2ccccc12)C1CCN(c2ncc(C(=O)NO)cn2)CC1.Cl [JX21005] | 27 | 1980 ± 407 | 9 | 643 ± 36 |  |  |  |  | 
17.8 ± 0.5 | 28.6 ± 1.8 |  |  | Cl.O=C(NO)c1cnc(N2CCC3(CCN(Cc4ccccc4)C3)C2)nc1 (centres unmarked) [JX21105] | 101 | 1790 ± 37 | 68 | 1200 ± 68 |  |  |  |  | 
45.2 ± 1.2 | 38.7 ± 0.6 |  |  | Cl.Cn1cc(CN2CCC3(CCCN3c3ncc(C(=O)NO)cn3)CC2)c2ccccc21 [JX21019] | 22 | 1000 ± 208 | 19 | 875 ± 70 |  |  |  |  | 
